Laboratory results: EP4806427A2, “TOPICAL PHARMACEUTICAL COMPOSITIONS” (priority 2015, dated 2016)

Columns and labels:
[1] = system: AhR pathway; experiment: Target profiling; assay type: cell-based; settings: intestinal human colon adenocarcinoma
[2] = system: AhR target gene, cyp1a1; experiment: Expression of AhR target gene in keratinocytes and leukocytes; assay type: cell-based; settings: primary human keratinocytes, and human or rodent leukocytes
[3] = Solubility of the active ingredient in different solvents; assay type: physicochemical
Description: The solubility of the active ingredient in different solvents was determined. […] The following formulations were prepared with 5%, 10%, 15% and 20% MCT (Formulations 15-18). Two formulations (Formulations 19 and 20) were also prepared where Polawax (a proprietary blend of cetostearyl alcohol and emulsifiers) was replaced with cetostearyl alcohol and additional emulsifier.

[4] = 28 day twice daily topical administration: toxicokinetics, skin concentrations, dermal irritancy and toxicity; assay type: in vivo, Göttingen minipigs
Description: Following dose application on each dosing day, the dose sites were semi-occluded for approximately 20 ± 1 hours from the first dose and then gently washed before the next dose was applied.

[5] = Gao et al. 2011; cited from earlier work
[6] = minipig, topical or ocular, 60 mg/kg/day

With `CC(C)c1c(O)cc(/C=C/c2ccccc2)cc1O` [3,5-Dihydroxy-4-isopropyl-trans-stilbene] the “effect on the AhR pathway” value [1] was “activator”, the “expression of the AhR target gene, cyp1a1” value [2] was “induce the expression” and the solubility ([3]; in medium chain triglycerides (MCT)) was “good solubility”. The solubility ([3]; in water) was “not soluble in water”, the “No Observed Adverse Effect Level (NOAEL) for dermal irritation or systemic toxicity” value ([4]; 28 days, twice daily topical, ~10% of total body surface area, highest dose tested) was 3 % (w/w) and the “Cmax Day 28” value ([4]; Male, 60 mg/kg/day, 40320 min) was 0.845 ng/mL. The “dermal irritation and systemic toxicity” value ([4]; minipig, in vivo) was “no dermal irritation or systemic toxicity”, the “gender-averaged skin concentration at necropsy, epidermis/upper dermis” value [4, 6] was 8265 ng/g and the “gender-averaged skin concentration at necropsy, lower dermis” value [4, 6] was 1830 ng/g. For the same compound, the “sensitivity to oxidation and photo degradation” value [5] was “sensitive to oxidation and photo degradation”.
